Earlier results, collected in patent US20010037025A1, “New compounds, their preparation and use” (priority 1998, published 2001).

System: RAR
Conditions: literature statement, Heyman et al. Cell 1992

## CC1=C(/C=C/C(C)=C/C=C/C(C)=C/C(=O)O)C(C)(C)CCC1 [all-trans RA]
  activation of / selectivity for RAR: displays selectivity for RAR
